How the values were obtained:
MTT assay, HL-7702 cells = format: cell-based, human; conditions: HL-7702 cells (normal liver cells); normal human liver cells, MTT, 72 h; read-out: Cytotoxic activity (IC50) HL-7702
Description: (§1) Primary human liver HL-7702 cells were purchased from SIBS (Shanghai Institutes for Biological Sciences, Shanghai, China) while MCF-7, A549, PC-9 and PC-3 cells were from ATCC (American Type Culture Collection, Rockville, MD, USA). HL-7702, PC-9 and A549 cells were incubated with Roswell Park Memorial Institute (RPMI) 1640 medium and MCF-7 were cultured in Dulbecco’s Modified Eagle’s Medium (DMEM) supplemented with 10% heat-inactivated fetal bovine serum (FBS) and 1% antibiotics (penicillin and streptomycin). PC-3, a human prostate adenocarcinoma cell, was maintained in Ham’s F-12 Medium supplemented with 10% FBS, 1% penicillin/streptomycin and 1% glutamine. All cells were cultured at 37 °C in an incubator containing 5% CO2. The cell viability was determined by using the MTT (methyl thiazolyl tetrazolium bromide) assay. Briefly, cells were seeded in 96-well plates (4 × 10^3 cells/well) overnight and exposed to the synthesized compounds with various concentrations. Camptothecin and dimethyl sulfoxide (DMSO) served as a positive control and a negative control respectively. After 72 h of incubation, 20 μL of MTT (5 mg/mL in phosphate buffer saline (PBS)) were added into each well. Dissolved yellowish MTT is converted to an insoluble purple formazan during incubation (4 h). In order to dissolve the formazan crystals, 100 μL of lysis solution (10% SDS (sodium dodecyl sulfate)-5% isobutyl alcohol-0.01M HCl) was added into per well. Finally, the optical density (OD) of solution in the plates was measured using a microplate reader at 570 nm after dissolving overnight. Cell viability was calculated by using the following formula: […].

HL-7702 cells = test: MTT assay, HL-7702 cells; format: cell-based, human; conditions: HL-7702, MTT
Description: as §1

PC-3 cells = test: MTT assay, PC-3 cells; format: cell-based; conditions: human prostate cancer cells, 72 h, read-out: Cytotoxic activity (IC50) PC-3
Description: as §1

PC-9 cells = test: MTT assay, PC-9 cells; format: cell-based; conditions: human non-small cell lung cancer cells, 72 h, read-out: Cytotoxic activity (IC50) PC-9
Description: as §1

MCF-7 cells = test: MTT assay, MCF-7 cells; format: cell-based; conditions: MCF7, human breast cancer cells, 72 h, read-out: Cytotoxic activity (IC50) MCF-7
Description: as §1

A549 cells [1] = test: MTT assay, A549 cells; format: cell-based; conditions: Homo sapiens, A549, 72 h, human non-small cell lung cancer cells, read-out: Cytotoxic activity (IC50) A549
Description: as §1

A549 cells [2] = test: Colony formation assay; format: cell-based; conditions: Homo sapiens, read-out: inhibition rate of colony formation
Description: The colony formation assay was executed to assess the colony forming ability of cancer cells treated by compounds. After being trypsinized and counted, the cells were seeded again on a 6-well plate with 4000 cells/well. Subsequently, cells were incubated at 37 °C in 5% CO2 overnight with medium. Afterwards, the cells were being treated with drugs (1 μM, 10 μM) and camptothecin (0.1 μM) for 10 days. Then, fresh PBS (1 mL/well) was added to wash the cells twice, before fixing with the stationary solution (10% acetic acid- 10% methanol- 80% dd H2O, 1 mL/well) at room temperature for 30 min. After that, 1% crystal violet was used to stain the cells. The cell viability was evaluated by the number of purple colonies.

A549 cells [3] = test: Hoechst 33258 staining (apoptosis); format: cell-based, human; conditions: 72 h
Description: For Hoechst staining, A549 cells were seeded in 6-well plates (8 × 10^4 cells/well) and allowed to adhere overnight. Compounds at a final concentration of 10, 5 and 1 µM were used to treat cells in the exponential growth phase for 72 h. Following this, the staining solution was added to the well plates and held at room temperature for 10 min. Afterwards, Hoechst 33258 was added to dye the cells for 10 min at room temperature in the dark. After washing two times with PBS, the treated cells were photographed under a semi-electrical fluorescence microscope (Olympus BX53, Olympus, Tokyo, Japan), to capture images of the stained nuclei from each well from randomly selected regions.

caspase-3 = test: Caspase-3 activity assay; format: cell-based, human; conditions: A549 cells, 0, 1, 5 μM, 48 h
Description: Briefly, A549 cells were cultured at 2 × 10^5 cells/well in 6-well plates and incubated with different concentrations of compounds (0, 1, 5 µM) for 48 h. At the end of the treatment, cells were harvested and lysed by the addition of lysis buffer from the caspase-3 assay kit. Aliquots of cell lysate were added to 96-well plates and the supernatant of cell lysates were mixed with buffer containing the above substrate peptides for 2 h at 37 °C. The absorbance in each well was measured at 405 nm using a microplate reader.

Bcl-2 = test: Western blotting, Bcl-2; format: cell-based, human; conditions: A549 cells, 0-10 μM, 72 h, western blot
Description: (§2) Total protein samples were extracted from A549 cells. cells were treated with different concentrations of compounds for 72 h, then the cells were collected, homogenized in 100 µL of ice-cold lysis buffer containing 2% SDS (sodium dodecyl sulfate), 10% DTT (dithiothreitol), 10% glycerin, 0.1% BPB (bromophenol blue) and 50mM Tris buffer (pH 6.8). After cell lyses were boiled for 30 min at 100 °C, samples were resolved on 12% SDS-PAGE (polyacrylamide gel) and then transferred to nitrocellulose (NC) membranes. Then the membranes were blocked with 5% skim milk at room temperature for 1 h. After incubation, the membranes were probed by primary antibodies for β-actin, Bax (BCL2-associated X protein) and Bcl-2 (B-cell lymphoma-2) at 4 °C overnight. After the blots were washed in TBST (Tris-base solution-Tween 20), membranes were incubated with HRP (horseradish peroxidase) -conjugated IgG secondary antibodies for 1 h at 37 °C. Finally, a Chemi-Doc image analyzer was used to determine protein expression levels by analyzing the signals captured on the NC membranes.

Bax = test: Western blotting, Bax; format: cell-based, human; conditions: A549 cells, 0-10 μM, 72 h, western blot
Description: as §2

caspase-3 activity (caspase-3): accumulation of caspase-3 in the cytosol
SMILES: O=c1c2c3c(sc2nc(-c2ccccc2)n1CCc1ccc(O)cc1)CCCCC3 [Compound 15]
IC50 at 72 h (MTT assay, HL-7702 cells): > 100 µM
toxicity to normal human liver cells (HL-7702 cells): no toxicity to normal human liver cells
IC50 (PC-3 cells): 47.5 ± 3.39 µM
IC50 (PC-9 cells): > 100 µM
IC50 (MCF-7 cells): 17.3 ± 0.2 µM
IC50 (A549 cells [1]): 0.94 ± 0.01 µM
inhibition at 1 µM (A549 cells [2]): 56%
nuclear morphology, Hoechst 33258 staining (A549 cells [3]; 1 μM): brightly stained nuclei due to chromatin condensation
nuclear morphology, Hoechst 33258 staining (A549 cells [3]; 5 and 10 μM): cell membrane rupture and contraction were observed
Bcl-2 protein expression level (Bcl-2): reduction of Bcl-2 level
Bcl-2/Bax ratio (Bcl-2; compared to control): significant decrease in the proportion of Bcl-2/Bax
Bax protein expression level (Bax): increase of Bax level

— paper PMC6843832, “Synthesis of Novel Analogs of Thieno[2,3-d] Pyrimidin-4(3H)-ones as Selective Inhibitors of Cancer Cell Growth” (Biomolecules, 2019)
